Patent US20260297080A1, “BICYCLIC COMPOUNDS AS CDK INHIBITORS” (BeOne Medicines I GmbH, priority 2022, published 2026)

Key:
CDK1/Cyclin B1 = CDK1/Cyclin B1 (Homo sapiens, UniProt P06493); assay: CDK1/Cyclin B1 Biochemical Assay (TR-FRET), 0.015 mM ATP; conditions: 0.15 μM Rb (Ser780)-biotin substrate, pH7.0, 60 min preincubation, 120 min reaction, room temperature
Method in brief: (§1)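 TR-FRET readout: 665/620 nm ratio from Eu-cryptate anti-pRb(Ser780) antibody plus streptavidin-XL665, converted to % inhibition and fitted (4-parameter logistic) for IC50. Reactions used 0.15 μM biotinylated Rb (Ser780) substrate, compound 0–10 μM, 60 min enzyme–compound preincubation, then 120 min reaction at room temperature.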

CDK2/Cyclin E1 = CDK2/Cyclin E1 (Homo sapiens, UniProt P24941); assay: CDK2/Cyclin E1 Biochemical Assay (TR-FRET), 0.060 mM ATP; conditions: 0.15 μM Rb (Ser780)-biotin substrate, pH7.0, 60 min preincubation, 120 min reaction, room temperature
Method in brief: as §1

CDK1/Cyclin B1, sequence (P06493 whole entry): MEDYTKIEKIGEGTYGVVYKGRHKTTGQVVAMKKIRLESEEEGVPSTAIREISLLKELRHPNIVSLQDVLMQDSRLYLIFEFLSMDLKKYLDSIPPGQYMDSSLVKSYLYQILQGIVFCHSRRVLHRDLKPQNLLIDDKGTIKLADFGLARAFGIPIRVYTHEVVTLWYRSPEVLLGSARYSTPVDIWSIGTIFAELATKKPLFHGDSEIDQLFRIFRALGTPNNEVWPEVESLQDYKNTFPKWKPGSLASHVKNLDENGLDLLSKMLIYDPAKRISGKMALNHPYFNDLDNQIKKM
CDK1/Cyclin B1, sequence (P14635 whole entry partner): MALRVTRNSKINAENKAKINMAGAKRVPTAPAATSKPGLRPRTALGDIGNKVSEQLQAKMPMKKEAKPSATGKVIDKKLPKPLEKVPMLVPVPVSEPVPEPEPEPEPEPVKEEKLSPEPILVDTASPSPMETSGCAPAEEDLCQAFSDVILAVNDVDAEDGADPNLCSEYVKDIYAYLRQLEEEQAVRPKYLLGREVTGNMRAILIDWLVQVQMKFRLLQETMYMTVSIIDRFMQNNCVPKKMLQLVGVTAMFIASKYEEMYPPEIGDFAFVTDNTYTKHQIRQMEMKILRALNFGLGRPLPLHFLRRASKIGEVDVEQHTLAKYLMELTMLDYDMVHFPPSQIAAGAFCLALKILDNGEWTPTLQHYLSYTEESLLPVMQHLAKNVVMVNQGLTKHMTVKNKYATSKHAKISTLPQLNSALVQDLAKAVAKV

| SMILES | IC50 (CDK1/Cyclin B1) [nM] | IC50 (CDK2/Cyclin E1) [nM] |
| --- | --- | --- |
| CC(C)NC(=O)O[C@H]1CC[C@@H](c2cc(Nc3c(F)cc4c(c3F)CNS4(=O)=O)n[nH]2)C1 (relative stereo) [Example 30, cis-3-(3-((4,6-difluoro-1,1-dioxido-2,3-dihydrobenzo[d]isothiazol-5-yl)amino)-1H-pyrazol-5-yl)cyclopentyl isopropylcarbamate] | 544 | 7.2 |
| COc1cc2c(cc1Nc1cc([C@@H]3CC[C@H](OC(=O)NC(C)C)C3)[nH]n1)C(C)(C)NS2(=O)=O (relative stereo) [Example 23, cis-3-(3-((6-methoxy-3,3-dimethyl-1,1-dioxido-2,3-dihydrobenzo[d]isothiazol-5-yl)amino)-1H-pyrazol-5-yl)cyclopentyl isopropylcarbamate] | 1170 | 244 |
| CC(C)NC(=O)OC1CC(c2cc(Nc3ccc4c(c3F)CNS4(=O)=O)n[nH]2)C1 (centres unmarked) [Example 137, 3-(3-((4-fluoro-1,1-dioxido-2,3-dihydrobenzo[d]isothiazol-5-yl)amino)-1H-pyrazol-5-yl)cyclobutyl isopropylcarbamate] | 375 | 35 |
| CCCNC(=O)O[C@@H]1CC[C@H](c2cc(Nc3ccc4c(c3F)CNS4(=O)=O)n[nH]2)C1 (single isomer, unassigned) [Example 138a] | 237 | 2.6 |
| CN1c2ccc(Nc3cc([C@@H]4CC[C@H](OC(=O)NC5(C)CCOC5)C4)[nH]n3)cc2CS1(=O)=O (relative stereo) [Example 239, cis-3-(3-((1-methyl-2,2-dioxido-1,3-dihydrobenzo[c]isothiazol-5-yl)amino)-1H-pyrazol-5-yl)cyclopentyl(3-methyltetrahydrofuran-3-yl)carbamate] | 158 | 9.6 |
| CC[C@H](C)NC(=O)O[C@H]1CC[C@@H](c2cc(Nc3ccc4c(c3F)CN(C3CC3)S4(=O)=O)n[nH]2)C1 (racemic) [Example 117, cis-3-(3-((2-cyclopropyl-4-fluoro-1,1-dioxido-2,3-dihydrobenzo[d]isothiazol-5-yl)amino)-1H-pyrazol-5-yl)cyclopentyl((S)-sec-butyl)carbamate] | 431 | 9.6 |
| CC(C)NC(=O)O[C@H]1CC[C@@H](c2cc(Nc3cc4c(cc3F)NS(=O)(=O)C4)n[nH]2)C1 (single isomer, unassigned) [Example 292a, cis-3-(3-((6-fluoro-2,2-dioxido-1,3-dihydrobenzo[c]isothiazol-5-yl)amino)-1H-pyrazol-5-yl)cyclopentyl isopropylcarbamate] | 1410 | 13 |
| CC(C)NC(=O)O[C@H]1CC[C@@H](c2cc(Nc3ccc4c(c3F)CN(C[C@@H](N)C(C)(C)C)S4(=O)=O)n[nH]2)C1 (relative stereo) [Example 98, cis-3-(3-((2-((S)-2-amino-3,3-dimethylbutyl)-4-fluoro-1,1-dioxido-2,3-dihydrobenzo[d]isothiazol-5-yl)amino)-1H-pyrazol-5-yl)cyclopentyl isopropylcarbamate] | 1910 | 20 |
| COCC1(NC(=O)O[C@H]2CC[C@@H](c3cc(Nc4ccc5c(c4F)CNS5(=O)=O)n[nH]3)C2)CC1 (single isomer, unassigned) [Example 158a, cis-3-(3-((4-fluoro-1,1-dioxido-2,3-dihydrobenzo[d]isothiazol-5-yl)amino)-1H-pyrazol-5-yl)cyclopentyl(1-(methoxymethyl)cyclopropyl)carbamate] | 799 | 5.3 |
| CC(C)NC(=O)O[C@H]1CC[C@@H](c2cc(Nc3ccc4c(c3F)CS(=O)(=O)N4C3COC3)n[nH]2)C1 (single isomer, unassigned) [Example 259a, cis-3-(3-((4-fluoro-1-(oxetan-3-yl)-2,2-dioxido-1,3-dihydrobenzo[c]isothiazol-5-yl)amino)-1H-pyrazol-5-yl)cyclopentyl isopropylcarbamate] | 364 | 5.4 |
| CCCNC(=O)O[C@H]1CC[C@@H](c2cc(Nc3ccc4c(c3F)CN(C3CC3)S4(=O)=O)n[nH]2)C1 (single isomer, unassigned) [Example 118a, cis-3-(3-((2-cyclopropyl-4-fluoro-1,1-dioxido-2,3-dihydrobenzo[d]isothiazol-5-yl)amino)-1H-pyrazol-5-yl)cyclopentyl propylcarbamate] | 395 | 14 |

Results, then the compound that gave them:

| IC50 (CDK1/Cyclin B1) [nM] | IC50 (CDK2/Cyclin E1) [nM] | SMILES |
| --- | --- | --- |
| 18 | 2.5 | CC1(NC(=O)O[C@H]2CC[C@@H](c3cc(Nc4ccc5c(c4)NS(=O)(=O)C5)n[nH]3)C2)CC1 (relative stereo) [Example 307, cis-3-(3-((2,2-dioxido-1,3-dihydrobenzo[c]isothiazol-6-yl)amino)-1H-pyrazol-5-yl)cyclopentyl(1-methylcyclopropyl)carbamate] |
| 61 | 8.3 | [2H]C([2H])([2H])C1c2cc(Nc3cc([C@@H]4CC[C@H](OC(=O)NCCC)C4)[nH]n3)cc(F)c2N(C([2H])([2H])[2H])S1(=O)=O (relative stereo) [Example 284, cis-3-(3-((7-fluoro-1,3-bis(methyl-d3)-2,2-dioxido-1,3-dihydrobenzo[c]isothiazol-5-yl)amino)-1H-pyrazol-5-yl)cyclopentyl propylcarbamate] |
| 29 | 0.8 | CC[C@H](C)NC(=O)O[C@H]1CC[C@@H](c2cc(Nc3ccc4c(c3F)S(=O)(=O)NC4)n[nH]2)C1 (relative stereo) [Example 188, cis-3-(3-((7-fluoro-1,1-dioxido-2,3-dihydrobenzo[d]isothiazol-6-yl)amino)-1H-pyrazol-5-yl)cyclopentyl((S)-sec-butyl)carbamate] |
| 28 | 0.9 | CC(C)NC(=O)O[C@@H]1CC[C@H](c2cc(Nc3ccc4c(c3)CS(=O)(=O)N4)n[nH]2)C1 (single isomer, unassigned) [Example 7a] |
| 108 | 6.5 | CC(C)NC(=O)O[C@H]1CC[C@@H](c2cc(Nc3ccc4c(c3)C(C)(C)NS4(=O)=O)n[nH]2)C1 (relative stereo) [Example 6, cis-3-(3-((3,3-dimethyl-1,1-dioxido-2,3-dihydrobenzo[d]isothiazol-5-yl)amino)-1H-pyrazol-5-yl)cyclopentyl isopropylcarbamate] |
| 104 | 1.6 | [2H]C([2H])([2H])N1Cc2c(ccc(Nc3cc([C@H]4CC[C@@H](OC(=O)NC5(C)CC5)C4)[nH]n3)c2F)S1(=O)=O (racemic) [Example 132, cis-3-(3-((4-fluoro-2-(methyl-d3)-1,1-dioxido-2,3-dihydrobenzo[d]isothiazol-5-yl)amino)-1H-pyrazol-5-yl)cyclopentyl(1-methylcyclopropyl)carbamate] |
| 46 | 5.4 | CC(C)NC(=O)O[C@H]1CC[C@@H](c2cc(Nc3ccc4c(c3)CS(=O)(=O)N4CCO)n[nH]2)C1 (single isomer, unassigned) [Example 219a, cis-3-(3-((1-(2-hydroxyethyl)-2,2-dioxido-1,3-dihydrobenzo[c]isothiazol-5-yl)amino)-1H-pyrazol-5-yl)cyclopentyl isopropylcarbamate] |
| 28 | 2 | CC(C)NC(=O)O[C@H]1CC[C@@H](c2cc(Nc3ccc4c(c3)NS(=O)(=O)C4)n[nH]2)C1 (stereo in doubt) [Example 303b, cis-3-(3-((2,2-dioxido-1,3-dihydrobenzo[c]isothiazol-6-yl)amino)-1H-pyrazol-5-yl)cyclopentyl isopropylcarbamate] |
| 31 | 1.1 | CC1(NC(=O)O[C@H]2CC[C@@H](c3cc(Nc4ccc5c(c4)CCS(=O)(=O)N5)n[nH]3)C2)CC1 (single isomer, unassigned) [Example 249a, cis-3-(3-((2,2-dioxido-3,4-dihydro-1H-benzo[c][1,2]thiazin-6-yl)amino)-1H-pyrazol-5-yl)cyclopentyl(1-methylcyclopropyl)carbamate] |
| 17 | 0.7 | CN1c2ccc(Nc3cc([C@H]4CC[C@@H](OC(=O)NC(C)(C)C)C4)[nH]n3)cc2CS1(=O)=O [Example 391a] |
| 75 | 4 | [2H]C([2H])([2H])N1c2ccc(Nc3cc([C@@H]4CC[C@H](OC(=O)NCCC)C4)[nH]n3)c(F)c2CS1(=O)=O (single isomer, unassigned) [Example 268b, cis-3-(3-((4-fluoro-1-(methyl-d3)-2,2-dioxido-1,3-dihydrobenzo[c]isothiazol-5-yl)amino)-1H-pyrazol-5-yl)cyclopentyl propylcarbamate] |
| 61 | 5.6 | [2H]C([2H])([2H])N1c2ccc(Nc3cc([C@@H]4CC[C@H](OC(=O)N[C@@H](C)CC)C4)[nH]n3)c(F)c2CS1(=O)=O (relative stereo) [Example 269, cis-3-(3-((4-fluoro-1-(methyl-d3)-2,2-dioxido-1,3-dihydrobenzo[c]isothiazol-5-yl)amino)-1H-pyrazol-5-yl)cyclopentyl((S)-sec-butyl)carbamate] |
| 158 | 3.7 | CC1(NC(=O)O[C@H]2CC[C@@H](c3cc(Nc4ccc5c(c4F)CNS5(=O)=O)n[nH]3)C2)CCOC1 (single isomer, unassigned) [Example 162d, cis-3-(3-((4-fluoro-1,1-dioxido-2,3-dihydrobenzo[d]isothiazol-5-yl)amino)-1H-pyrazol-5-yl)cyclopentyl(3-methyltetrahydrofuran-3-yl)carbamate] |
| 29 | 1.2 | CC(C)NC(=O)O[C@H]1CC[C@@H](c2cc(Nc3ccc4c(c3)S(=O)(=O)NC4)n[nH]2)C1 (relative stereo) [Example 3, cis-3-(3-((1,1-dioxido-2,3-dihydrobenzo[d]isothiazol-6-yl)amino)-1H-pyrazol-5-yl)cyclopentyl isopropylcarbamate] |
